Test results: patent US20260335299A1, “SUBSTITUTED OXOISOINDOLINYL PIPERIDINE-2,6-DIONE COMPOUND AS ANTICANCER AGENT” (BRISTOL-MYERS SQUIBB COMPANY, priority 2023, published 2026)
Like-named read-outs stand apart in the source and are kept apart here.

Columns and labels:
IKZF1 Ikaros = IKZF1 Ikaros (Homo sapiens, UniProt Q13422+Q96SW2); test: Jurkat Cellular Degradation Assay (Ikaros); format: cell-based; design: endogenous in cells; host or cells: Jurkat cells; settings: Jurkat cells, 72 h
Description: Jurkat cells were plated at 80,000 cells/well in 40 μL RPMI+10% FBS in a 384-well cell culture plate prior to using acoustic dispensing technology for adding a compound of interest. Cell cultures were incubated for 72 h at 37° C. and 5% CO2. In order to facilitate analysis, cell cultures were spun down at 200 rpm for 5 min and the supernatant was discarded. After shaking the plate to dislodge the cell pellet, cells were resuspended in 50 μL of Fixation Buffer (eBioscience FoxP3 buffer set 00-5523-00) for 60 min at room temperature. After centrifuging and discarding the supernatant, cells were permeabilized with 50 μL of Permeabilization buffer (eBioscience FoxP3 buffer set 00-5523-00) for 10 min at room temperature. Following permeabilization, cells were spun down and the supernatant was replaced with 20 μL fluorescently labelled antibodies against Helios, Ikaros and Aiolos or corresponding Isotype controls in 1× Permeabilization buffer (Ikaros-Alexa488 [Biolegend, Cat #368408, 1:50], Helios-PE [CST, Cat #29360, 1:50], Aiolos-Alexa647 [Biolegend, Cat #371106 Biolegend, 1:25]) and staining reactions were incubated for 1 h at room temperature while protected from light. Subsequently, 30 μL of 1× Permeabilization buffer was added prior to centrifuging the cells and discarding the supernatant. Stained cells were resuspended in 25 μL of flow cytometry staining buffer [PBS+0.2% bovine serum albumin (BSA)] and analyzed using an Intellicyt Ique Plus flow cytometer.
Table A-1 lists the maximum observed degradation of the IKZF1 protein, IKZF2 protein, and IKZF3 protein as measured in the Jurkat Cellular Degradation assay. The results in Table A-I were rounded to two digits. In the Jurkat Cellular Degradation assay, a value of 100% indicated no detectable protein remaining or complete degradation of the protein; and a value of 0% indicated no detectable degradation of the protein by the test compound.

IKZF2 Helios = IKZF2 Helios (Homo sapiens, UniProt Q96SW2+Q9UKS7); test: Human Regulatory T Cell Reprogramming Assay (Helios); format: cell-based; design: Human CD4+ T cells were isolated from fresh healthy leukopaks; endogenous in cells; host or cells: FACS-sorted primary human regulatory T cells from healthy leukopaks
IKZF2 Helios, sequence (Q9UKS7 whole entry): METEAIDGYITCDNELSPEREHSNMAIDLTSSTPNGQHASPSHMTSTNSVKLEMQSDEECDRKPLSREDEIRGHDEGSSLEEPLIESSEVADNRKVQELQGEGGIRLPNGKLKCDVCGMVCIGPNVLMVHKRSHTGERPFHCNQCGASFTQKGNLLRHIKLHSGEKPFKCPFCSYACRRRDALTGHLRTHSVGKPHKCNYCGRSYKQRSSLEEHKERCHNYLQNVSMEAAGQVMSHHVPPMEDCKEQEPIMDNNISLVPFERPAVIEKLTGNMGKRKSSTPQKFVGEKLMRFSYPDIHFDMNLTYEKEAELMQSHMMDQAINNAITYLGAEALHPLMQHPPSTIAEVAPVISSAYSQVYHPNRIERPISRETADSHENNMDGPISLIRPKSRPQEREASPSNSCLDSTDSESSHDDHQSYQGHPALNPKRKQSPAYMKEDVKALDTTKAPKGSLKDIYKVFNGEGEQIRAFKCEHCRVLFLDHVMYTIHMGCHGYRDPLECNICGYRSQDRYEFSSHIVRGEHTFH
IKZF2 Helios, sequence (Q96SW2 whole entry): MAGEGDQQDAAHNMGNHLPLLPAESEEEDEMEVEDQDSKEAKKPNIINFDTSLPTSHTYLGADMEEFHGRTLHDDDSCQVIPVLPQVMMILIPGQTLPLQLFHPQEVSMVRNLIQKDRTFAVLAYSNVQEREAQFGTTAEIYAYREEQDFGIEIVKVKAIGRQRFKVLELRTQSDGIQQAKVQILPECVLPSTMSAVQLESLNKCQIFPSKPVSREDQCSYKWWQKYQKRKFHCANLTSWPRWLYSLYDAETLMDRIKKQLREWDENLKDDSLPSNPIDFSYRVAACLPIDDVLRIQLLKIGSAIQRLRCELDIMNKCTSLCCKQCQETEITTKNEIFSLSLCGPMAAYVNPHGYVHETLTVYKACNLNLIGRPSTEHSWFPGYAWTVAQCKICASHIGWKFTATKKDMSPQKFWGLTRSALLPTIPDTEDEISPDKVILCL
IKZF2 Helios, sequence (Q16531 whole entry partner): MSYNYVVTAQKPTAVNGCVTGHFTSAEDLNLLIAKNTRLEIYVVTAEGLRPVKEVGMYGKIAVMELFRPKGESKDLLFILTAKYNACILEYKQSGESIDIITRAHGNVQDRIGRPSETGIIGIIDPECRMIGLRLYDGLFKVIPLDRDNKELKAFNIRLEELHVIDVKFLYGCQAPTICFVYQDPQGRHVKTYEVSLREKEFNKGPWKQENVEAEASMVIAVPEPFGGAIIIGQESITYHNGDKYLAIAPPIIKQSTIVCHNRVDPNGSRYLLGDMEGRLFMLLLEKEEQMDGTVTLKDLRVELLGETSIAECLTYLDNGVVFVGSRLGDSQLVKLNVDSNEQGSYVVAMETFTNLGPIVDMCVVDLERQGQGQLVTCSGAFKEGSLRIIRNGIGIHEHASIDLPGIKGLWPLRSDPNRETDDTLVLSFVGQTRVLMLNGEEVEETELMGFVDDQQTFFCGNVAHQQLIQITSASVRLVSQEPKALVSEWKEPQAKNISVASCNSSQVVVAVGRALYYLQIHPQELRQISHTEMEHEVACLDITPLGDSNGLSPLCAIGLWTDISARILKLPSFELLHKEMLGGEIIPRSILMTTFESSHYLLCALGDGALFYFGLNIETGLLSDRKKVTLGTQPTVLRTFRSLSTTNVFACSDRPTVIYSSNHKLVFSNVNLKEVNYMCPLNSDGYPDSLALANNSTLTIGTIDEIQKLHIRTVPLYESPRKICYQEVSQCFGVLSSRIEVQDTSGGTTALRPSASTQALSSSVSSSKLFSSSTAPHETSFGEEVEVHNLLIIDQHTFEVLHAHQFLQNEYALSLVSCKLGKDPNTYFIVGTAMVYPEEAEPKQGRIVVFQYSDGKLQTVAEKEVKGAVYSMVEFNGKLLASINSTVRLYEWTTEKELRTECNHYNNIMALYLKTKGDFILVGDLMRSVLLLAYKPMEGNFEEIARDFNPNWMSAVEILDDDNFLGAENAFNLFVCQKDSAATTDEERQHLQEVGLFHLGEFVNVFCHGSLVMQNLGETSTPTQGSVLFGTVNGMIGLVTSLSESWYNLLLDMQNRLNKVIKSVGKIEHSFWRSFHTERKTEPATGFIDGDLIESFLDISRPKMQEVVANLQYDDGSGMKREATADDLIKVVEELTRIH
Description: Human CD4+ T cells were isolated from fresh healthy leukopaks (Stemcell Technologies) using the RosetteSep Human CD4+ T cell enrichment cocktail (Stemcell Technologies) and Ficoll density gradient centrifugation. Leukopaks were diluted with an equal volume of phosphate-buffered saline (PBS [Gibco]) supplemented with 2% fetal bovine serum (FBS, VWR Lifescience) and incubated with RosetteSep Human CD4^+ T cell enrichment cocktail for 20 minutes before layering on Ficoll-Paque Plus solution (GE Health Care). The cell-rich interface layer was harvested and washed twice with PBS supplemented with 2% FBS. Regulatory T cells were then isolated manually using the EasySep Human CD4^+CD1271WCD25^+ Regulatory T cell isolation kit (Stemcell Technologies) according to the manufacturer's instructions. Cells were rested overnight in Roswell Park Memorial Institute (RPMI) 1640 media (Gibco) supplemented with 10% FBS, Pen/Strep (Gibco), MEM-NEAA (Gibco), and sodium pyruvate (Gibco) in a humidified incubator (37° C., 5% CO2). Cells were then stained for CD4 (clone: RPA-T4, Biolegend), CD25 (clone: 2A3, BD Biosciences), and CD127 (clone: hIL-7R-M21, BD Biosciences). CD4+CD12710WCD25+ cells were sorted on a BD FACS Aria Fusion sorter to a purity of 95% or greater. Sorted cells were immediately used or cryopreserved for downstream assays.
Fresh or cryopreserved FACS-sorted CD4+CD127^lowCD25^+ Treg cells were cultured at 25,000-50,000 cells/well of 96-well round bottom plates in RPMI 1640 media (Gibco) supplemented with 10% FBS, Pen/Strep (Gibco), MEM-NEAA (Gibco), and sodium pyruvate (Gibco). Cells were stimulated with Treg Xpander beads (Thermo Fisher) at cells-to-beads ratio of 1:4 in the presence of 500 U/mL recombinant human IL-2 (Proleukin). Compounds were added at titrated doses and cells were incubated at 37° C., 5% CO2 for 12-13 days. Recombinant human IL-2 and compound were replenished every 2-3 days during the entire culture duration. On day 12 or 13, cells were restimulated with phorbol 12-myristate 13-acetate (PMA) and ionomycin in the presence of the protein transport inhibitors brefeldin A and monensin (eBioscience Cell Stimulation Cocktail plus protein transport inhibitors, 500×, Catalog number 00-4975-93) before proceeding with flow cytometry staining and analysis.
For flow cytometry staining, cells were washed twice with flow cytometry staining buffer (Thermo Fisher) and incubated in Human Tru-stain Fc block (Biolegend) for 10 minutes before adding eFluor780 viability dye (Thermo Fisher) and surface marker antibody cocktail for 30 minutes at 4° C. […] Data were analyzed using FlowJo version 10 and GraphPad Prism Software.
Table C-1 lists the maximum observed degradation of the IKZF2 protein and IKZF4 protein as measured in the Human Regulatory T Cell Reprogramming assay. […]

IKZF1 Ikaros, sequence (Q13422 whole entry): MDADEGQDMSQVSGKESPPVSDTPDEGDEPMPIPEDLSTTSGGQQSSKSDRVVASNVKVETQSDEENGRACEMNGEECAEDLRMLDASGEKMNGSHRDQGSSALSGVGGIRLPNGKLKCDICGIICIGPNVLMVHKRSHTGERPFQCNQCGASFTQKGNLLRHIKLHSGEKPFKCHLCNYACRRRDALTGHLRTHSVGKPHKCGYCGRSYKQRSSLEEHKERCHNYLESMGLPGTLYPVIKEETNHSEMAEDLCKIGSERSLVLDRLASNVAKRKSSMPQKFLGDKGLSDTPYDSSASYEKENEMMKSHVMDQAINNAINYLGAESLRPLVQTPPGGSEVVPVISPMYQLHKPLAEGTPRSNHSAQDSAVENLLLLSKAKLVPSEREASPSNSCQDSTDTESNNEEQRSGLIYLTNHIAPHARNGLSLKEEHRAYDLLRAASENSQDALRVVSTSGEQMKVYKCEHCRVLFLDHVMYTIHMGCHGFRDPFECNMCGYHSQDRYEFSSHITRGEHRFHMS
IKZF1 Ikaros, sequence (Q96SW2 whole entry): as the sequence (Q96SW2 whole entry) above
IKZF1 Ikaros, sequence (Q16531 whole entry partner): as the sequence (Q16531 whole entry partner) above

Nc1nc(-c2ccc3c(c2F)CN(C2CCC(=O)NC2=O)C3=O)ccc1CN1CC(C2CCC(F)(F)CC2)C1 (stereo not drawn) [Example 1, 3-(5-(6-Amino-5-((3-(4,4-difluorocyclohexyl)azetidin-1-yl)methyl)pyridin-2-yl)-4-fluoro-1-oxoisoindolin-2-yl) piperidine-2,6-dione]
DC50 (IKZF1 Ikaros; concentration reducing protein level by 50% compared to DMSO alone): 90.9 nM | Dmax (IKZF1 Ikaros; human, read-out: IKZF1 Ikaros max % deg. observed): 69% | Dmax (IKZF2 Helios; Regulatory T cell, human, text summary of Table C-1, read-out: decreased the level of the IKZF2 (Helios) protein): ≥ 81% | Dmax (IKZF2 Helios; Regulatory T cell, human Treg cells, stimulated, 12-13 days, read-out: IKZF2 Helios Maximum Observed Degradation): 81 to 86% | DC50 (IKZF2 Helios; human Treg cells, stimulated, 12-13 days, concentration reducing protein level by 50% compared to DMSO alone): 36 to 172 nM | Dmax (IKZF2 Helios; summary table, Human T Regulatory Cell Reprogramming Assay (Table C-1), read-out: IKZF2 Helios max % deg. observed (Table E)): 81 to 86%
